The assay relates to OPN. Description: OPN expression in primary bone marrow-derived macrophages (qICC, ELISA). Format: cell-based, mouse. Particulars: for increase in OPN production/expression (qICC): without Aβ, vs untreated MΦ^BM (FIG. 14D). Here is the method:
For MΦ^BM cells, the cells in each well were lifted by 2 mM EDTA-PBS, collected in tubes, and centrifuged. Cell pellets were lysed and re-suspended in a cocktail of RIPA buffer supplemented with 1% protease inhibitors (Thermo Scientific), and stored at −80° C. until use.
To test amyloid-β phagocytosis by macrophage, in repeated experiments monocytes were isolated from the bone marrow of wild-type mice (n=18 mice) and differentiated into macro-phage by 7-day cultivation in complete RPMI-1640 medium (#21870; Life Technologies) with 10% serum and 20 ng/ml MCSF (#315-02; PeproTech). Bone marrow-derived macrophages (MΦBM) were generated from femurs and tibiae cultured for 6-7 days in complete RPMI 1640 medium (Life Technologies) with 10% FBS, 100 U/ml penicillin, 100 μg/ml streptomycin, 2 mM L-glutamine and 20 ng/ml MCSF (PeproTech). Primary cultures of macrophage were then plated at 1.2×10^5 cells per well (3-4 wells for each condition) in 24-well tissue-culture plates on glass cover-slips overnight. Next, macrophages were either treated with 30 μg/ml GA (Copaxone®; TEVA Neuroscience), Brefeldin A (BFA; Sigma, 1X), or 10 μM Minocycline (Sigma) for the duration of 1, 3, or 24 h, or not treated (control group). Before addition of fibrillar amyloid-β1-42, the cells were chilled in a 4° C. ice bath for 5 min; immediately after addition of the preformed fibrillar amyloid-β1-42 (100 nM), the plates were centrifuged at 515g in 25° C. followed by incubation at 37° C. for 30 or 60 min. The cells were then rinsed with amyloid-β-free medium to remove non-incorporated amyloid-β and later washed twice with PBS. Methanol (99.8%) at −20° C. for 20 min or 4% paraformaldehyde at room temperature for 12 min was used for fixation of the cells followed by repeated washes with PBS. For immunostaining, the cells were first stained using the mouse anti-human amyloid-β mAb clone 6E10 (1:100; SIG-39320; Covance), rat anti-CD68 mAb clone FA-11 (1:100; ab53444; Abcam), rat anti-CD36 mAb clone MF3 (1:200; ab80080; Abcam), rat anti-CD204 scavenger receptor type I/II (SCARA1) mAb (1:100; MCA1322; AbD Serotec), rabbit anti-CD163 pAb (1:100; orb13303; Biorbyt), and goat anti-MMP-9 pAb (1:100; AF909; R&D systems). Secondary polyclonal antibodies included donkey anti-mouse, anti-rat, anti-rabbit, and anti-goat conjugated with Cy2, Cy3 or Cy5 (1:200; Jackson ImmunoResearch Laboratories). The cells were mounted using ProLong® Gold with DAPI (Molecular Probes, Life Technologies). Several fields (minimum n=5 randomly selected per group) were obtained from each well using a Carl Zeiss Axio Imager Z1 ApoTome-equipped microscope (an average of 120 cells in each field). Images were obtained using the same exposure time in each occasion. The fluorescent signal and its total area were determined and quantified by the conversion of individual images to greyscale and standardizing to baseline using histogram-based thresholds with NIH ImageJ software. The ‘mean area per cell’ was a result of a numerical average of the individual cell's immunoreactive area per field. The ‘area/cell’ measures the total fluorescent signal (area) divided by the total number of cells (DAPI count) of the same field (image). For all experiments, the investigators were blinded to the treatment condition.
To investigate the impact of GA on OPN expression in macrophages, a series of in vitro studies using primary MΦ^BM was performed. BM was isolated from young WT donor mice, differentiated into mature macrophages, pretreated overnight with GA ([…]; GA-MΦ^BM) and exposed to pre-formed Aβ1-42 fibrils. […] Since MΦ^BM constitutively express and secrete OPN into the extracellular matrix, OPN production by inhibiting secretion with Brefeldin A (BFA) pretreatment was assessed (FIG. 14C). Indeed, newly generated OPN was trapped by BFA, increasing its intracellular accumulation. […] GA further elevated OPN production in BFA-pretreated MΦ^BM (FIG. 14C). […]
For orientation: An ELISA detects its analyte on a solid surface through an enzyme-linked reagent.

As for glatiramer acetate [GA], the “increase in OPN in GA-treated MΦ” value (FIG. 5D) is reported as 2 fold. Besides, the “increase of OPN expression in MΦ^BM” value (GA pretreated, 100 nM fibrillar Aβ1-42 for 30 min, qICC and ELISA) is 2.3-2.7 fold. For the same substance, the “increased OPN levels in cell lysates (ELISA)” value by setting is: (with BFA (FIG. 14E)) 1.4 fold; (without BFA (FIG. 14E)) 2.3 fold. Also, the “increase in OPN production/expression (qICC)” value reads like this: (with BFA, GA overnight 30 µg/ml) 1.6 fold; (without BFA, GA overnight) 2.5 fold.

Values taken from patent US11779600B2, “Methods of treating or preventing alzheimer's disease and associated conditions” (CEDARS-SINAI MEDICAL CENTER, priority 2016, dated 2023).
